From US9963485B2, “Cycloheptapeptide agents for treatment of cancer and obesity diseases” (Hong Kong Baptist University, priority 2012, dated 2018) come the findings set out here.

Series [1] has as its system oral epidermoid (KB) carcinoma cell line. In words: Cytotoxicity assay (sulforhodamine B), KB. Format: cell-based, human. Conditions: KB cells.
Experimental: (§1) Pure compounds are evaluated against the human cancer cell lines comprising our cytotoxicity screening panel. Cytotoxicity assays involving oral epidermoid (KB), colon (HCT116), prostate (LNCaP), breast (MCF7), Hela (cervical), leukemia (HL-60) melanoma (A375) and lung (A549) carcinoma cell lines, are performed using sulforhodamine B according to established protocols (Zhang et al., Journal of Medicinal Chemistry 2006; 49: 693-708; and Jutiviboonsuk A et al., Phytochemistry 2005; 66: 2745-2751.). KB and A375 cells are maintained in DMEM (Dulbecco's modified Eagle medium) medium. LNCaP and HL60 cells are maintained in RPMI1640 medium with hormone-free 10% heat-activated FBS (fetal bovine serum) supplemented with 0.1 nM testosterone. MCF7 and Hela cells are maintained and assayed in MEME (Minimum Essential Medium Eagle) medium containing 10 mg/L of insulin. HCT116 cells are maintained in McCoy's 5A medium supplemented with 10% fetal bovine serum. A549 cells are maintained in RPMI-1640 medium supplemented with 10% FCS. Serial dilutions of the compounds are prepared using 10% aqueous DMSO as solvent. The 190 μL cell suspension (3×10^4 cells in 1 ml media) is incubated with 10 μL sample solutions, in triplicate, in 96-well tissue culture plate at 37° C. in a humidified atmosphere of 5% CO2 in air for 72 hours. 10 μL 10% aqueous DMSO is used as control group. Then the cells are fixed to plastic substratum by the addition of 100 μL cold 20% aqueous trichloroacetic acid and washing with water after incubation at 4° C. for 30 min. After staining cells with 100 μL of 0.4% sulforhodamine B in 1% aqueous AcOH for 30 min, unbound dye is removed by rinsing with 1% aqueous AcOH. The bound dye is solubilized with 200 μL 10 mM unbuffered Tris base, pH 10, and the optical density is measured at 515 nm using an ELISA plate reader. The average data are expressed as a percentage, relative to the control. The IC50 values, the dose that inhibit cell growth by 50%, are calculated using nonlinear regression analysis (percent survival versus concentration).
For series [2], the system named is prostate (LNCaP) carcinoma cell line. Nature of the series: cells. Format: cell-based, human. Conditions: Homo sapiens, 72 hours, read-out: Cytotoxic activity IC50, LNCaP.
Experimental: as §1
The subject of series [3] is lung (A549) carcinoma cell line. Nature of the series: cells. It counts as cell-based, human. The following applies: Homo sapiens.
Experimental: as §1
In series [4] the test system is breast (MCF7) carcinoma cell line. In words: cells. Format: cell-based, human. The following applies: Homo sapiens.
Experimental: as §1
The next series deals with HCT116-tumor xenograft. In words: HCT116 xenograft mouse model. Format: in vivo. The following applies: 0.1 mg/kg, after the first two treatments. How it is done: The treatment started on the 6th day when the HCT116-tumor reached approximately 100 mm^3 (L×W×W). […] All mice died for the maytansine group after the initial two treatments at the dose of 0.1 mg/kg, indicating the highly toxicity of maytansine.

A word on the IC50: it is the concentration that gives 50% inhibition. What is called IC90 is the point of the concentration-response curve where the effect stands at 90%.

For `COc1cc2cc(c1Cl)N(C)C(=O)C[C@H](OC(=O)[C@H](C)N(C)C(C)=O)[C@]1(C)O[C@H]1[C@H](C)[C@@H]1C[C@@](O)(NC(=O)O1)[C@H](OC)/C=C/C=C(\C)C2` [Maytansine, reference compound], the IC50 in series [1] (Homo sapiens, 72 hours, read-out: Cytotoxic activity IC50, KB) turned out to be 0.16 nM; in series [2], 0.56 nM; in series [3] (72 hours, read-out: Cytotoxic activity IC50, A549) it was 3.18 nM; in series [4] (72 hours, read-out: Cytotoxic activity IC50, MCF7), 0.69 nM. The “Cytotoxic activity IC90, KB” value in series [1] is recorded as about 5 nM. The concentration for an effect of 90% (IC90) was over 40 nM in series [3] (read-out: Cytotoxic activity IC90, A549) and over 20 nM in series [4] (read-out: Cytotoxic activity IC90, MCF7). Also, the “Mortality of tumor-bearing mice” value in the series with HCT116-tumor xenograft is recorded as “All mice died”.
